Values of other authors as cited in patent US20110028420A1, “Regression of Established Atherosclerotic Plaques, and Treating Sudden-Onset Asthma Attacks, using PARP Inhibitors” (priority 2008, published 2011).

How the values were obtained:
PARP1 = biological target: T1, PARP1 (Mus musculus, UniProt P11103); conditions: cortical neuron cultures; cited from earlier work
T1 construct: host or cells: cortical neuron cultures

PARP-2 = conditions: cited from earlier work
rat = conditions: cited from earlier work

T1 sequence (P11103 2-1013 limits assumed): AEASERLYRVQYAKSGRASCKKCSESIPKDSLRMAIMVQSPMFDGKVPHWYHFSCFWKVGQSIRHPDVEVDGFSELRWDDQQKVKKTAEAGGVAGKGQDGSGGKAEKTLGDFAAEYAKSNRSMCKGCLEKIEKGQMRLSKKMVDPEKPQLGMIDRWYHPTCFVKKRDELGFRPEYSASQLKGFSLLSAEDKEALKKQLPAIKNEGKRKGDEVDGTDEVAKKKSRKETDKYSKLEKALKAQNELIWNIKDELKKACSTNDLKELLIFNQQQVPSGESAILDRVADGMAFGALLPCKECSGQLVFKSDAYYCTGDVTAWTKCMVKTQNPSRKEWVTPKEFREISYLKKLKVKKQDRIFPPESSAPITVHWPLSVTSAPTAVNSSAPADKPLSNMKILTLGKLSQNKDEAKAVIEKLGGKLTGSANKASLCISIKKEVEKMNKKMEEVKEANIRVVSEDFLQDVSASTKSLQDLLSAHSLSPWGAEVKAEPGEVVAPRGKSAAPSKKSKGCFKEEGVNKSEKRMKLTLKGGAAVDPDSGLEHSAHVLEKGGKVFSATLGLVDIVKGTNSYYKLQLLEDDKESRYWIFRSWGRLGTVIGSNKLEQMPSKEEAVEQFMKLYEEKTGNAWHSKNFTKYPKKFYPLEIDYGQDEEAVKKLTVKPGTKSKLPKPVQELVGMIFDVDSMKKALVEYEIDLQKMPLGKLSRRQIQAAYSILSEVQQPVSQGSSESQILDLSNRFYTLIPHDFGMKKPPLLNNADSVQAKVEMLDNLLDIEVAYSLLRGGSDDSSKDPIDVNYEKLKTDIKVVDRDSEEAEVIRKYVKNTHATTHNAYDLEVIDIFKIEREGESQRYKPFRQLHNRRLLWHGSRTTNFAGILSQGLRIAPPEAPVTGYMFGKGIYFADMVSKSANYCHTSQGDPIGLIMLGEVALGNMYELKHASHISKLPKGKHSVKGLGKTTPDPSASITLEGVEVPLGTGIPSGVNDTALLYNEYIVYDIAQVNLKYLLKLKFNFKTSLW

With `O=C1NCCc2c(OCCCCN3CCCCC3)cccc21` [3,4-dihydro-5-[4-(1-piperidinyl)butoxy]-1(2H)-isoquinolinone] as the molecule, how does the “Induced PARP1 activation” value (PARP1) read?
Its value is “inhibited”.

Which “Selectivity for the PARP-2 isotype over the PARP-1 isotype” value (PARP-2) does the source give for `O=C(Oc1cccc2cnccc12)c1ccccc1` [5-benzoyloxyisoquinoline] here?
Its value is 60 fold.

What does the source list for `CN1CCN(Cc2ccc3c(c2)-c2n[nH]c(=O)c4cccc(c24)O3)CC1` [GPI 15427, 10-(4-methyl-piperazin-1-ylmethyl)-2H-7-oxa-1,2-diaza-benzo[de]anthracen-3-one]?
Anti-inflammatory effects in gut inflammation (rat; post-injury administration): potent anti-inflammatory effects; Accumulation of poly (ADP-ribose) in ileum and colon (rat; splanchnic artery occlusion-shocked rats, dinitrobenzene sulfonic acid-treated rats): diminished
